Data from US20250176599A1, “FLAVOR COMPOSITION AND FOOD AND BEVERAGE” (TAKASAGO INTERNATIONAL CORPORATION, priority 2021, published 2025).

Legend:
[1] = Sensory evaluation of aqueous solution V containing 1-octen-3-ol 10 ppb: off-flavor intensity and masking component intensity; settings: average panel score
Summary of the method: (§1)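 8 trained panelists; degradant in ion-exchanged water + nootkatone. Off-flavor 0–4, relative (no masker = 4, water = 0); masker flavor 0–4, absolute.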

[2] = Overall conclusion of the sensory evaluation across aqueous solutions I to VI
Summary of the method: as §1

[3] = Overall conclusion of the sensory evaluation across soymilks I and II
Protocol: (§2) To commercially available soymilk (“Delicious Unadjusted Soymilk” manufactured by Kikkoman Corporation), each degradation component was added to prepare degradation component-added soymilks at the concentrations listed in Table 23. To these degradation component-added soymilks, 1,4-dioxacycloheptadecan-5,17-dione was added at the concentrations listed in Table 23 to confirm the intensity of the off-flavor (masking effect) and the intensity of the masking components (impact on the flavor of the soymilk itself) for each sample.
Eight experienced panelists were selected to conduct a sensory evaluation similar to that of Example 1.
The same method as in Example 20 was used to confirm the intensity of the off-flavor (masking effect) derived from unsaturated fatty acids by α-methyl ionone and the intensity of the masking components (impact on the flavor of the soymilk itself).
The same method as in Example 20 was used to confirm the intensity of the off-flavor (masking effect) derived from unsaturated fatty acids by menthyl 3-hydroxybutyrate and the intensity of the masking components (impact on the flavor of the soymilk itself).

[4] = Sensory evaluation of aqueous solution II containing (E)-2-octenal 10 ppb: off-flavor intensity and masking component intensity; settings: average panel score
Summary of the method: as §1

[5] = Sensory evaluation of aqueous solution I containing (E)-2-nonenal 1 ppb: off-flavor intensity and masking component intensity; settings: average panel score
Summary of the method: as §1

[6] = Sensory evaluation of aqueous solution III containing 1-octen-3-one 1 ppb: off-flavor intensity and masking component intensity; settings: average panel score
Summary of the method: as §1

[7] = Sensory evaluation of aqueous solution IV containing 1,5-octadien-3-one 100 ppt: off-flavor intensity and masking component intensity; settings: aqueous solution IV, average panel score
Summary of the method: as §1

[8] = Sensory evaluation of degradation component-added soymilk II (1-octen-3-ol 500 ppb); settings: average panel score
Protocol: as §2
(§3) Eight experienced panelists were selected to conduct a sensory evaluation similar to that of Example 1. […]

[9] = Sensory evaluation of aqueous solution VI containing 1,5-octadien-3-ol 10 ppb: off-flavor intensity and masking component intensity; settings: aqueous solution VI, average panel score
Summary of the method: as §1

[10] = Sensory evaluation of degradation component-added soymilk I ((E)-2-nonenal 5 ppb); settings: average panel score
Protocol: as §2, §3

CC(O)CC(=O)OC1CC(C)CCC1C(C)C (stereo not drawn) [menthyl 3-hydroxybutyrate]
0.9: Masking Component Intensity ([4]; 10 ppb added) | Masking Component Intensity ([5]; 10 ppb added) | Masking Component Intensity ([9]; 100 ppb added)
1.4: Masking Component Intensity ([4]; 100 ppb added) | Off-Flavor Intensity ([5]; 50 ppm added) | Off-Flavor Intensity ([8]; 50 ppm added) | Masking Component Intensity ([9]; 1 ppm added)
2.6: Masking Component Intensity ([6]; 10 ppm added) | Masking Component Intensity ([7]; 10 ppm added)
2.5: Off-Flavor Intensity ([1]; 1 ppm added) | Off-Flavor Intensity ([5]; 1 ppm added) | Masking Component Intensity ([5]; 10 ppm added) | Off-Flavor Intensity ([7]; 5 ppm added) | Off-Flavor Intensity ([7]; 10 ppm added) | Off-Flavor Intensity ([8]; 1 ppm added) | Masking Component Intensity ([9]; 10 ppm added) | Off-Flavor Intensity ([9]; 100 ppb added)
3.1: Off-Flavor Intensity ([5]; 1 ppb added) | Masking Component Intensity ([7]; 50 ppm added) | Off-Flavor Intensity ([7]; 100 ppb added) | Masking Component Intensity ([10]; 100 ppm added)
1.9: Masking Component Intensity ([4]; 1 ppm added) | Off-Flavor Intensity ([4]; 10 ppm added) | Masking Component Intensity ([5]; 1 ppm added) | Off-Flavor Intensity ([5]; 10 ppm added) | Off-Flavor Intensity ([8]; 10 ppm added) | Masking Component Intensity ([8]; 50 ppm added) | Off-Flavor Intensity ([10]; 10 ppm added)
≥ 10 ppt: concentration that masks the off-flavor and does not affect the flavor of the food and/or beverage itself, lower limit [2]
2.8: Off-Flavor Intensity ([1]; 100 ppb added) | Off-Flavor Intensity ([4]; 10 ppb added) | Off-Flavor Intensity ([10]; 100 ppb added)
0.8: Masking Component Intensity ([1]; 10 ppb added) | Masking Component Intensity ([7]; 100 ppb added) | Off-Flavor Intensity ([8]; 100 ppm added)
0.5: Masking Component Intensity ([8]; 1 ppm added)
1.8: Masking Component Intensity ([6]; 1 ppm added) | Off-Flavor Intensity ([6]; 50 ppm added) | Masking Component Intensity ([7]; 5 ppm added) | Masking Component Intensity ([9]; 5 ppm added) | Off-Flavor Intensity ([9]; 5 ppm added)
3.6: Off-Flavor Intensity ([5]; 10 ppt added) | Off-Flavor Intensity ([6]; 10 ppt added) | Off-Flavor Intensity ([6]; 100 ppt added) | Masking Component Intensity ([9]; 50 ppm added)
1.3: Masking Component Intensity ([8]; 10 ppm added) | Off-Flavor Intensity ([9]; 50 ppm added) | Off-Flavor Intensity ([10]; 100 ppm added)
0.1: Masking Component Intensity ([5]; 10 ppt added) | Masking Component Intensity ([7]; 1 ppb added) | Masking Component Intensity ([7]; 100 ppt added) | Masking Component Intensity ([9]; 100 ppt added) | Masking Component Intensity ([10]; 100 ppb added)
3.4: Off-Flavor Intensity ([4]; 10 ppt added) | Off-Flavor Intensity ([4]; 100 ppt added) | Off-Flavor Intensity ([5]; 100 ppt added) | Off-Flavor Intensity ([6]; 1 ppb added) | Off-Flavor Intensity ([7]; 10 ppb added)
0.4: Masking Component Intensity ([1]; 1 ppb added) | Masking Component Intensity ([4]; 10 ppt added) | Masking Component Intensity ([4]; 100 ppt added) | Masking Component Intensity ([8]; 100 ppb added) | Masking Component Intensity ([10]; 1 ppm added)
0.3: Masking Component Intensity ([1]; 100 ppt added) | Masking Component Intensity ([5]; 100 ppt added) | Masking Component Intensity ([6]; 10 ppt added) | Masking Component Intensity ([6]; 100 ppt added) | Masking Component Intensity ([9]; 1 ppb added)
≤ 10 ppm: concentration that masks the off-flavor and does not affect the flavor of the food and/or beverage itself, upper limit [2]
1.6: Masking Component Intensity ([1]; 5 ppm added) | Off-Flavor Intensity ([9]; 10 ppm added)
3.5: Masking Component Intensity ([1]; 50 ppm added) | Off-Flavor Intensity ([1]; 100 ppt added) | Masking Component Intensity ([4]; 50 ppm added) | Masking Component Intensity ([5]; 50 ppm added) | Masking Component Intensity ([6]; 50 ppm added)
≤ 100 ppm: concentration that masks the off-flavor and does not affect the flavor of the soymilk itself, upper limit [3]
3.0: Off-Flavor Intensity ([4]; 1 ppb added) | Off-Flavor Intensity ([5]; 10 ppb added) | Off-Flavor Intensity ([7]; 1 ppm added) | Off-Flavor Intensity ([9]; 100 ppt added)
2.1: Masking Component Intensity ([4]; 10 ppm added) | Off-Flavor Intensity ([9]; 1 ppm added)
1.1: Off-Flavor Intensity ([4]; 50 ppm added) | Masking Component Intensity ([7]; 1 ppm added) | Masking Component Intensity ([10]; 10 ppm added)
3.3: Off-Flavor Intensity ([1]; 1 ppb added)
0.6: Masking Component Intensity ([4]; 1 ppb added) | Masking Component Intensity ([5]; 1 ppb added) | Masking Component Intensity ([6]; 1 ppb added) | Masking Component Intensity ([7]; 10 ppb added) | Masking Component Intensity ([9]; 10 ppb added)
2.3: Off-Flavor Intensity ([4]; 100 ppb added) | Masking Component Intensity ([10]; 50 ppm added)
1.5: Off-Flavor Intensity ([1]; 50 ppm added) | Masking Component Intensity ([5]; 100 ppb added) | Masking Component Intensity ([6]; 100 ppb added) | Off-Flavor Intensity ([10]; 50 ppm added)
2.4: Off-Flavor Intensity ([1]; 5 ppm added) | Masking Component Intensity ([1]; 10 ppm added) | Off-Flavor Intensity ([6]; 1 ppm added) | Off-Flavor Intensity ([10]; 1 ppm added)
1.0: Masking Component Intensity ([1]; 1 ppm added) | Masking Component Intensity ([1]; 100 ppb added) | Masking Component Intensity ([6]; 10 ppb added)
2.9: Off-Flavor Intensity ([1]; 10 ppb added) | Off-Flavor Intensity ([5]; 100 ppb added) | Off-Flavor Intensity ([6]; 10 ppb added) | Off-Flavor Intensity ([6]; 100 ppb added) | Off-Flavor Intensity ([8]; 100 ppb added) | Masking Component Intensity ([8]; 100 ppm added) | Off-Flavor Intensity ([9]; 1 ppb added) | Off-Flavor Intensity ([9]; 10 ppb added)
3.8: Off-Flavor Intensity ([7]; 1 ppb added) | Off-Flavor Intensity ([7]; 100 ppt added)
≥ 100 ppb: concentration that masks the off-flavor and does not affect the flavor of the soymilk itself, lower limit [3]
2.0: Off-Flavor Intensity ([1]; 10 ppm added) | Off-Flavor Intensity ([4]; 1 ppm added) | Off-Flavor Intensity ([6]; 10 ppm added) | Off-Flavor Intensity ([7]; 50 ppm added)
